According to patent publication US20240109865A1, “INDAZOLE COMPOUNDS AS KINASE INHIBITORS” (TYRA BIOSCIENCES, INC., priority 2020, published 2024):

Tests used:
Test in all cases: Kinase assay, binding constants (Kd), kinase-tagged T7 phage, qPCR
FGFR1 = FGFR1 (Homo sapiens (Human), UniProt P11362)
Procedure, shortened: (§1)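 Competition binding: T7 phage-tagged kinase + biotin-ligand beads + compound (11 pts, 3-fold, 0.9% DMSO). Elution 30 min RT with free ligand; qPCR quantitation. Kd via Hill fit, slope −1.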

FGFR2 = FGFR2 (Homo sapiens (Human), UniProt P21802)
Procedure, shortened: as §1

FGFR4 = FGFR4 (Homo sapiens (Human), UniProt P22455)
Procedure, shortened: as §1

FGFR3 = FGFR3 (Homo sapiens (Human), UniProt P22607)
Procedure, shortened: as §1

FGFR3 (V555M) = FGFR3 (V555M) (Homo sapiens (Human), UniProt P22607, V555M); details: V555M mutant
Procedure, shortened: as §1

Chain of FGFR4 (P22455 22-802): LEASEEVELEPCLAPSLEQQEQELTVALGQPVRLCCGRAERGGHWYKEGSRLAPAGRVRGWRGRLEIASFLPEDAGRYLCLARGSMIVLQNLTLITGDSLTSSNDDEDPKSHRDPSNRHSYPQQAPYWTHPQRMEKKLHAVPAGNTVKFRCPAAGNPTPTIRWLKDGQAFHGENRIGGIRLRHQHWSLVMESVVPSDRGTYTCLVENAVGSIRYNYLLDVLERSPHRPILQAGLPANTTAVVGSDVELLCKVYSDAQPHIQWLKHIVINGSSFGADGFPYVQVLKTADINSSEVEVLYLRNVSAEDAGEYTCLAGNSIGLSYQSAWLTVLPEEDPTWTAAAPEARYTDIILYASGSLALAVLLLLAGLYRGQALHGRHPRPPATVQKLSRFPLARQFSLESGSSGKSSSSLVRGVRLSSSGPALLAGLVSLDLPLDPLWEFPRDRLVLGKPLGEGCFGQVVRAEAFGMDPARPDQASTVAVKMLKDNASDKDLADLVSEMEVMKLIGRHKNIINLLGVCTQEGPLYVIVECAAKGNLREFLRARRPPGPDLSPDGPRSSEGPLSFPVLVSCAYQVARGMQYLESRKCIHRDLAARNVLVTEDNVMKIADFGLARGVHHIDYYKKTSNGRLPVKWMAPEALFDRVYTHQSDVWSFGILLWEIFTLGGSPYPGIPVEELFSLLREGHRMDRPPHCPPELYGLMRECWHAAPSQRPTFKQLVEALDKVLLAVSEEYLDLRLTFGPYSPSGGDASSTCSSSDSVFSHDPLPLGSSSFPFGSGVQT
Chain of FGFR2 (P21802 22-821): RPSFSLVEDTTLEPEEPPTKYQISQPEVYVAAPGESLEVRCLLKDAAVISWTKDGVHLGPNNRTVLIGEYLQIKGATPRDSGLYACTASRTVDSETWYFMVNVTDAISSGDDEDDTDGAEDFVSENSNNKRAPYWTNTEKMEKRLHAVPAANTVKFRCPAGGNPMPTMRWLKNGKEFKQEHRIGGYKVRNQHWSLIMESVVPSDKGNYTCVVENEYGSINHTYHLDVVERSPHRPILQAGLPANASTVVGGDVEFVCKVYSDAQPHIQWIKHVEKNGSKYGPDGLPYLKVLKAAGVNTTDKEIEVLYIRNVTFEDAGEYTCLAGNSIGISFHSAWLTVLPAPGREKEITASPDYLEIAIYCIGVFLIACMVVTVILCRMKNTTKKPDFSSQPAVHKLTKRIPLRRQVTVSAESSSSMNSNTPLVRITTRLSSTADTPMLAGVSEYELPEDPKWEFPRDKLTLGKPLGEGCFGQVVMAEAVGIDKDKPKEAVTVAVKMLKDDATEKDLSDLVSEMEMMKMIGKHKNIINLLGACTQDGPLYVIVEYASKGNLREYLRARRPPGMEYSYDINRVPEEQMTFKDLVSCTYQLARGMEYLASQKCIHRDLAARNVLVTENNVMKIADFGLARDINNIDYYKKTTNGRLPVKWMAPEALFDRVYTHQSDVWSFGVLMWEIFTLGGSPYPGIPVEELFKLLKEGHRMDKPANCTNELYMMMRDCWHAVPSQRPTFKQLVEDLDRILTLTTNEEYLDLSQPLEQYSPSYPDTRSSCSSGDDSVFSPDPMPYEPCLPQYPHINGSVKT
Chain of FGFR3 (V555M) (P22607 23-806 V555M): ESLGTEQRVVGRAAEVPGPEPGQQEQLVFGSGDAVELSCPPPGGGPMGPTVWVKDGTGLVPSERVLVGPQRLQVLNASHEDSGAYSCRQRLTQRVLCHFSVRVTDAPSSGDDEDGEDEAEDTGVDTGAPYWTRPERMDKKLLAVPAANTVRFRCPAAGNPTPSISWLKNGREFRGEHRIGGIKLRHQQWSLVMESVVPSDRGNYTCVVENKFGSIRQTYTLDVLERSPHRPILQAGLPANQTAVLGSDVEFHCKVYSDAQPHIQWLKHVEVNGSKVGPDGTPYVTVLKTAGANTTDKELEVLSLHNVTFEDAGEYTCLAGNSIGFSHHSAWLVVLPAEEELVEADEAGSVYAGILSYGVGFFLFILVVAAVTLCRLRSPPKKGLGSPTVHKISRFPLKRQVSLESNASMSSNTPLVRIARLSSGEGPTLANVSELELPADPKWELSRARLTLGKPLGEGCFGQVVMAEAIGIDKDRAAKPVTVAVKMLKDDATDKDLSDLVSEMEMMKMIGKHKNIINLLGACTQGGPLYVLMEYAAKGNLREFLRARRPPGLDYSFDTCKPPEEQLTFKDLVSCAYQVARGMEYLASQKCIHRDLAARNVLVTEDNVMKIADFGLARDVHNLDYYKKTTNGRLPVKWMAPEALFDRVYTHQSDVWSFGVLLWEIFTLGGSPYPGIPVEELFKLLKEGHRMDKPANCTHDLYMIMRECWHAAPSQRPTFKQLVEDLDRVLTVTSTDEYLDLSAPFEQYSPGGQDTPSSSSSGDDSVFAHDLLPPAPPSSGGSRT
Chain of FGFR1 (P11362 22-822): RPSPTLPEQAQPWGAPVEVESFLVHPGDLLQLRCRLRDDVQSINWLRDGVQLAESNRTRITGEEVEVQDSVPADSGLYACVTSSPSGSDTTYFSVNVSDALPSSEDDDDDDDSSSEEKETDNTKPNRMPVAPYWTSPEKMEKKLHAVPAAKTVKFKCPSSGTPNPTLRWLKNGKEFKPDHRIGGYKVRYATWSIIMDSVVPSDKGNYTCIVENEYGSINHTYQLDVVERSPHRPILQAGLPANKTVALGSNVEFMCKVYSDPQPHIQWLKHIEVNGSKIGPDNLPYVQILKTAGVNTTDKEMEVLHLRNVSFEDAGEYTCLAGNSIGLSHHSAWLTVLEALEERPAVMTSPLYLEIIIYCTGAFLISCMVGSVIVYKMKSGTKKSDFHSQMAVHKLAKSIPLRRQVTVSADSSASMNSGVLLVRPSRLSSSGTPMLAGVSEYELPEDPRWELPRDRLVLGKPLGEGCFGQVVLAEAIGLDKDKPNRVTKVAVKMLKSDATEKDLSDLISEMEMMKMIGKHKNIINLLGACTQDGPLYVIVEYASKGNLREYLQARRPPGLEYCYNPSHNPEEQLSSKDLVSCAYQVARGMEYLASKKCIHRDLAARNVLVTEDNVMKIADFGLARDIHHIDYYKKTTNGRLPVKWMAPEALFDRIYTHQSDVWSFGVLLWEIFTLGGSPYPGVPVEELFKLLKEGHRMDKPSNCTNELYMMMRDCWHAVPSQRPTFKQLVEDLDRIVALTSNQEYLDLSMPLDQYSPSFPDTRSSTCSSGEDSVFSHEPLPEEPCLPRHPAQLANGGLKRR
Chain of FGFR3 (P22607 23-806): as the sequence (P22607 23-806 V555M) above, with M533V counted along it

Compound | Kd (FGFR1) [nM] | Kd (FGFR2) [nM] | Kd (FGFR4) [nM] | Kd (FGFR3) [nM] | Kd (FGFR3 (V555M)) [nM]
C[C@@H](Oc1cc2c(-c3cnc(N4CC5(CCCS(=O)(=O)C5)C4)c(C#N)c3)n[nH]c2cc1F)c1c(Cl)cncc1Cl [Example 362] | 20 to 100 | 100 to 300 | 1 to 20 | 1 to 20 | 1 to 20
C[C@@H](Oc1ccc2[nH]nc(-c3cnc(N4CC5(CN(CC(F)F)C5)C4)c(C#N)c3)c2c1)c1c(Cl)cncc1Cl [Example 330, (R)-5-(5-(1-(3,5-dichloropyridin-4-yl)ethoxy)-1H-indazol-3-yl)-2-(6-(2,2-difluoroethyl)-2,6-diazaspiro[3.3]heptan-2-yl)nicotinonitrile] | 100 to 300 | 100 to 300 | 1 to 20 | 20 to 100 | 1 to 20
COc1cc2[nH]nc(-c3cnc(N4CC5CC(C4)N5)c(C)c3)c2cc1O[C@H](C)c1c(C)cnnc1C [Example 317, 3-(5-(5-((R)-1-(3,5-dimethylpyridazin-4-yl)ethoxy)-6-methoxy-1H-indazol-3-yl)-3-methylpyridin-2-yl)-3,6-diazabicyclo[3.1.1]heptane] | 1 to 20 | 1 to 20 | 1 to 20 | 1 to 20 | 1 to 20
Cc1ncc(Cl)c([C@@H](C)Oc2ccc3[nH]nc(-c4ccc(N5CC6(CC(O)C6)C5)nc4)c3c2)c1Cl [Example 227, 2-[5-[5-[(1R)-1-(3,5-dichloro-2-methyl-4-pyridyl)ethoxy]-1H-indazol-3-yl]-2-pyridyl]-2-azaspiro[3.3]heptan-6-ol] | 20 to 100 | 1 to 20 | 1 to 20 | 1 to 20 | 1 to 20
C[C@@H](Oc1ccc2[nH]nc(-c3ccc(N4CCN5CCC[C@@H]5C4)nc3)c2c1)c1c(Cl)cncc1Cl [Example 184, 3-[6-[(8aR)-3,4,6,7,8,8a-hexahydro-1H-pyrrolo[1,2-a]pyrazin-2-yl]-3-pyridyl]-5-[(1R)-1-(3,5-dichloro-4-pyridyl)ethoxy]-1H-indazole] | 1 to 20 | 1 to 20 | 1 to 20 | 1 to 20 | 1 to 20
C[C@@H](Oc1ccc2[nH]nc(-c3ccc(N4CC5(CNC5)C4)nc3)c2c1)c1cc(F)cc(F)c1 [Example 169, 3-[6-(2,6-diazaspiro[3.3]heptan-2-yl)-3-pyridyl]-5-[(1R)-1-(3,5-difluorophenyl)ethoxy]-1H-indazole] | 20 to 100 | 20 to 100 | 20 to 100 | 1 to 20 | 1 to 20
Cc1cnnc(C)c1[C@@H](C)Oc1ccc2[nH]nc(-c3cnc(N4CC5CC(C4)N5)c(C#N)c3)c2c1 [Example 299, 2-(3,6-diazabicyclo[3.1.1]heptan-3-yl)-5-(5-((R)-1-(3,5-dimethylpyridazin-4-yl)ethoxy)-1H-indazol-3-yl)nicotinonitrile] | 20 to 100 | 20 to 100 | 1 to 20 | 1 to 20 | 1 to 20
C[C@@H](Oc1cc2c(-c3cnc(N4CC[C@@H]4C)c(C#N)c3)n[nH]c2cc1Cl)c1c(Cl)cncc1Cl [Example 365, 5-(6-chloro-5-((R)-1-(3,5-dichloropyridin-4-yl)ethoxy)-1H-indazol-3-yl)-2-((S)-2-methylazetidin-1-yl)nicotinonitrile] | > 300 | > 300 | 20 to 100 | 100 to 300 | 100 to 300
COc1cc2[nH]nc(-c3ccc(N4CCN5C(=O)NCC5C4)nc3)c2cc1O[C@H](C)c1c(C)cnnc1C (stereo partly drawn) [Example 228, 7-(5-(5-((R)-1-(3,5-dimethylpyridazin-4-yl)ethoxy)-6-methoxy-1H-indazol-3-yl)pyridin-2-yl)hexahydroimidazo[1,5-a]pyrazin-3(2H)-one] | 1 to 20 | 1 to 20 | 1 to 20 | 1 to 20 | 1 to 20
COC1CC2(C1)CN(c1ccc(-c3n[nH]c4ccc(O[C@H](C)c5c(Cl)cnc(C)c5Cl)cc34)cn1)C2 [Example 238, 5-[(1R)-1-(3,5-dichloro-2-methyl-4-pyridyl)ethoxy]-3-[6-(6-methoxy-2-azaspiro[3.3]heptan-2-yl)-3-pyridyl]-1H-indazole] | 20 to 100 | 20 to 100 | 1 to 20 | 1 to 20 | 1 to 20
C[C@@H](Oc1ccc2[nH]nc(-c3cnc(N4CC(O)C4)c(C#N)c3)c2c1)c1c(Cl)cncc1Cl [Example 302, 5-[5-[(1R)-1-(3,5-dichloro-4-pyridyl)ethoxy]-1H-indazol-3-yl]-2-(3-hydroxyazetidin-1-yl)pyridine-3-carbonitrile] | 100 to 300 | 100 to 300 | 1 to 20 | 20 to 100 | 1 to 20
C[C@@H](Oc1ccc2[nH]nc(-c3ccc(N4CC5(CN(C(=O)C(F)(F)F)C5)C4)nc3)c2c1)c1c(Cl)cncc1Cl [Example 245, 1-[6-[5-[5-[(1R)-1-(3,5-dichloro-4-pyridyl)ethoxy]-1H-indazol-3-yl]-2-pyridyl]-2,6-diazaspiro[3.3]heptan-2-yl]-2,2,2-trifluoro-ethanone] | 1 to 20 | 1 to 20 | 1 to 20 | 1 to 20 | 1 to 20
CCS(=O)(=O)N1CCCC2(CN(c3ccc(-c4n[nH]c5ccc(O[C@H](C)c6c(C)cnnc6C)cc45)cn3)C2)C1 [Example 186, 5-[(1R)-1-(3,5-dimethylpyridazin-4-yl)ethoxy]-3-[6-(8-ethylsulfonyl-2,8-diazaspiro[3.5]nonan-2-yl)-3-pyridyl]-1H-indazole] | 100 to 300 | 20 to 100 | 20 to 100 | 1 to 20 | 1 to 20
C[C@@H](Oc1cc2c(-c3cnc(N4CCC4)c(S(C)(=O)=O)c3)n[nH]c2cc1Cl)c1c(Cl)cncc1Cl [Example 370, (R)-3-(6-(azetidin-1-yl)-5-(methylsulfonyl)pyridin-3-yl)-6-chloro-5-(1-(3,5-dichloropyridin-4-yl)ethoxy)-1H-indazole] | > 300 | > 300 | 20 to 100 | 20 to 100 | 20 to 100
C[C@@H](Oc1ccc2[nH]nc(-c3cnc(N4CC5(CN(CC(F)(F)F)C5)C4)c(C#N)c3)c2c1)c1c(Cl)cncc1Cl [Example 329, (R)-5-(5-(1-(3,5-dichloropyridin-4-yl)ethoxy)-1H-indazol-3-yl)-2-(6-(2,2,2-trifluoroethyl)-2,6-diazaspiro[3.3]heptan-2-yl)nicotinonitrile] | 100 to 300 | > 300 | 1 to 20 | 20 to 100 | 1 to 20
C[C@@H](Oc1ccc2[nH]nc(-c3cnc(N4CC5(CCCNC5)C4)nc3)c2c1)c1c(Cl)cncc1Cl [Example 132, 3-[2-(2,8-diazaspiro[3.5]nonan-2-yl)pyrimidin-5-yl]-5-[(1R)-1-(3,5-dichloro-4-pyridyl)ethoxy]-1H-indazole] | 1 to 20 | 1 to 20 | 1 to 20 | 1 to 20 | 1 to 20
C[C@@H](Oc1ccc2[nH]nc(-c3cnc(N4CC[C@@H](O)C4)c(C#N)c3)c2c1)c1c(Cl)cnc(F)c1Cl [Example 284, 5-(5-((R)-1-(3,5-dichloro-2-fluoropyridin-4-yl)ethoxy)-1H-indazol-3-yl)-2-((R)-3-hydroxypyrrolidin-1-yl)nicotinonitrile] | > 300 | > 300 | 20 to 100 | 100 to 300 | 20 to 100
COc1cc2[nH]nc(-c3ccc(N4CC5(C4)CN(S(C)(=O)=O)C5)nc3)c2cc1O[C@@H](C)c1c(C)cnnc1C [Example 192, 5-[(1S)-1-(3,5-dimethylpyridazin-4-yl)ethoxy]-6-methoxy-3-[6-(2-methylsulfonyl-2,6-diazaspiro[3.3]heptan-6-yl)-3-pyridyl]-1H-indazole] | 100 to 300 | 20 to 100 | 100 to 300 | 1 to 20 | 1 to 20
C[C@@H](Oc1ccc2[nH]nc(-c3cnc(N4CC(F)(F)C4)c(C#N)c3)c2c1)c1c(Cl)cncc1Cl [Example 353, (R)-5-(5-(1-(3,5-dichloropyridin-4-yl)ethoxy)-1H-indazol-3-yl)-2-(3,3-difluoroazetidin-1-yl)nicotinonitrile] | > 300 | > 300 | 1 to 20 | 20 to 100 | 20 to 100
COc1cc2[nH]nc(-c3cnc(N4CC5(C4)CN(S(C)(=O)=O)C5)c(C)c3)c2cc1O[C@H](C)c1c(Cl)cncc1Cl [Example 250, 5-[(1R)-1-(3,5-dichloro-4-pyridyl)ethoxy]-6-methoxy-3-[5-methyl-6-(2-methylsulfonyl-2,6-diazaspiro[3.3]heptan-6-yl)-3-pyridyl]-1H-indazole] | 1 to 20 | 1 to 20 | 1 to 20 | 1 to 20 | 1 to 20
C[C@@H](Oc1ccc2[nH]nc(-c3cnc(N4CCCC4)c(C#N)c3)c2c1)c1c(Cl)cnc(F)c1Cl [Example 292, (R)-5-(5-(1-(3,5-dichloro-2-fluoropyridin-4-yl)ethoxy)-1H-indazol-3-yl)-2-(pyrrolidin-1-yl)nicotinonitrile] | > 300 | > 300 | 100 to 300 | > 300 | > 300
C[C@@H](Oc1ccc2[nH]nc(-c3cnc(N4CC5(C4)CN(S(C)(=O)=O)C5)c(CN(C)C)c3)c2c1)c1c(Cl)cncc1Cl [Example 356, (R)-1-(5-(5-(1-(3,5-dichloropyridin-4-yl)ethoxy)-1H-indazol-3-yl)-2-(6-(methylsulfonyl)-2,6-diazaspiro[3.3]heptan-2-yl)pyridin-3-yl)-N,N-dimethylmethanamine] | > 300 | > 300 | 20 to 100 | > 300 | 100 to 300
